Data taken from US5206220A (Research Corporation Technologies, Inc., priority 1991, dated 1993).
Converted amounts (≈) assume the structure as drawn. “And” between values parts separate entries of the source, which are not always exact repeats. Equal entries are not always repeated. Where two headings read alike, the source gives them in different places. Peptide text beside a SMILES is read from it.

Tests used:
[1] = storage in aqueous solution, diketopiperazine formation; cited from earlier work
[2] = cited from earlier work
[3] = γ-GluGln stability in Aminosyn-PF 10%; type: physicochemical; settings: sterile, room temperature, one month, 4.5 and 9 months
Method: (§1) Sci. 18:233-236] or accomplished by standard amino acid analysis techniques.
To determine the stability of γ-GluGln under typical storage conditions, γ-GluGln was added to Aminosyn-PF 10% under sterile conditions and left at room temperature.

[4] = Clearance of γ-GluGln from plasma, release of plasma glutamine; type: in vivo, mice; settings: for Glutamine Concentration (plasma), individual mice / Glutamine Concentration (plasma), Mean + Standard Error: 29 μmoles γ-GluGln i.v.; for Glutamine Concentration (plasma), Mean + Standard Error: N = 6
Method: as §1
Mice were injected with 29 μmoles of γ-GluGln via the external jugular vein. Control animals were injected with an equal volume of saline. Blood was sampled at 10 min. and at 60 min after injection.

[5] = administered for TPN; cited from earlier work
[6] = rats, 0.5 mmol/kg; same value at longer times; cited from earlier work
cells = settings: cited from earlier work
[7] = cited from earlier work; remark: listed apart in the source
γ-GTase = biological target: T1, γ-GTase (Mus musculus, UniProt Q60928); experiment: Effects of inhibiting γ-GTase with acivicin in mice injected with γ-GluTyr; type: in vivo; settings: for Tyr (plasma) / Phe (plasma) / γ-GluTyr (plasma): 2.8 μmol γ-GluTyr i.v., 10 min postinjection; for γ-GluTyr excreted: lost in the urine at 60 min postinjection
T1 construct: from tissue; host or cells: live mice (whole animal; kidney named as a site of high activity)
T1 sequence (Q60928 1-379 limits assumed): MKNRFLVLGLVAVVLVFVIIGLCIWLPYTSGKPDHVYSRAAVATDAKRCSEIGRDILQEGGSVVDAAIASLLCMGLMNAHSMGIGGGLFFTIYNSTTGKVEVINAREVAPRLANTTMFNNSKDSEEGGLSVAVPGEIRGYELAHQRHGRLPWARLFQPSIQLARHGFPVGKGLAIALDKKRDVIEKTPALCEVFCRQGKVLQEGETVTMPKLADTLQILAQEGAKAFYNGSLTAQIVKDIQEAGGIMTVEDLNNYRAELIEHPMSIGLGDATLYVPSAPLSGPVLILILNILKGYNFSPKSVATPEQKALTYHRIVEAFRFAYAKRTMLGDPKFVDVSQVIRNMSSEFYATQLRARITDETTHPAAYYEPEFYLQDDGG
T1 sequence (Q60928 380-568 limits assumed): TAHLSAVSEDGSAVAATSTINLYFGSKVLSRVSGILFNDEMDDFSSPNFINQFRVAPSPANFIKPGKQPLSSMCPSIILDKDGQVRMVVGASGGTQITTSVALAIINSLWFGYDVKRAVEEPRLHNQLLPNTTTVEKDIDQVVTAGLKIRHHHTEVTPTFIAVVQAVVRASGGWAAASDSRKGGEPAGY
Method: To test the role of γ-GTase in degradation of γ-GluTyr in vivo an additional experiment was conducted. […] Control mice received saline rather than acivicin prior to intravenous injection of 2.8 μmol of γ-GluTyr. In test mice, an intraperitoneal injection of acivicin was made 90 min prior to the injection of 2.8 μmol γ-GluTyr. Plasma was sampled after 10 min and 60 min, and urine was collected after 60 min.
The kidney is generally unable to prevent the loss of intact peptides in the urine. Instead, peptides are hydrolyzed to free amino acids, which can then be salvaged by absorption into the bloodstream. […] When γ-GTase is inhibited by acivicin, unhydrolyzed peptide should be lost in the urine. The data in Table 5 are consistent with a role for γ-GTase in the hydrolysis of γ-GluTyr to prevent its excretion in the urine. When this enzyme is inhibited by acivicin, the amount of unhydrolyzed peptide which appears in the urine in 60 min increases markedly over peptide found in the urine of control mice.

[8] = Clearance of γ-GluTyr from plasma after i.v. injection; type: in vivo, mice
Method: Injections of 20 μl of 140 mM γ-GluTyr (2.8 μmol) were made in the external jugular vein of 30-40 g mice. The amount of γ-GluTyr was measured in the plasma at 10 min and 60 min post-injection in each animal.

[9] = biological target: T2, bovine kidney γ-GTase (Sigma Type II) (Bos taurus, UniProt G3N2D8); experiment: In vitro release of tyrosine from γ-GluTyr by γ-glutamyl transpeptidase; type: biochemical; settings: γ-GluTyr in Aminosyn-PF 10%, pH 7.4, monitored by HPLC
T2 construct: the solution treated with bovine kidney γ-GTase (Sigma Type II) at pH 7.4; purchased Sigma Type II; host or cells: bovine kidney (tissue-derived)
T2 sequence (G3N2D8 1-379 limits assumed): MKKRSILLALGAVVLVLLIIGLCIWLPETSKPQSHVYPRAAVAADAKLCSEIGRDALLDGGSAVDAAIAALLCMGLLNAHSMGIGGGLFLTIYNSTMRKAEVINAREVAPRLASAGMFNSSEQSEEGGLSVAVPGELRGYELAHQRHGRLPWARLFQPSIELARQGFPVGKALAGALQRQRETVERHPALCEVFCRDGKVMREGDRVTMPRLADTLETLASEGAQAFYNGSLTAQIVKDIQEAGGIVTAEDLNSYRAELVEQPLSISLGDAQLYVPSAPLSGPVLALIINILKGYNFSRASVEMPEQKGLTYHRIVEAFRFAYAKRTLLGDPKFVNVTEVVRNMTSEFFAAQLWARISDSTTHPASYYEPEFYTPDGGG
T2 sequence (G3N2D8 380-568 limits assumed): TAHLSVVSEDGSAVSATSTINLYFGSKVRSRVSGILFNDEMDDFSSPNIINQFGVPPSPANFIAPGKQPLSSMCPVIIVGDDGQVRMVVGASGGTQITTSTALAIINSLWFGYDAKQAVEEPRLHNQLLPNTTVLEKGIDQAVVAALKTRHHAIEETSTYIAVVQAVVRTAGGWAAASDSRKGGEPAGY
Method: The most likely route for metabolic degradation of γ-GluTyr involves the enzyme, γ-glutamyl transpeptidase (γ-GTase), a widely distributed enzyme in mammalian tissues. In an in vitro test of this hypothesis, γ-GluTyr was added to Aminosyn-PF 10% and the solution treated with bovine kidney γ-GTase (Sigma Type II) at pH 7.4.

[10] = Distribution of γ-GluTyr in urine and plasma; type: in vivo, mice
Method: Urine was collected from mice injected with γ-GluTyr to determine whether or not the peptide was excreted into the urine. Mice were anesthetized with pentobarbital and then injected with 20 μl 140 mM γ-GluTyr (2.8 μmol). No urine was voided during the 60-min experiment, during which time the mice remained anesthetized. At the end of the experiment, the urinary bladders were tied off, removed and blood was collected from the heart for analysis. At the end of 60 min, a maximum of 0.13% of the injected γ-GluTyr was excreted in the urine whereas the plasma contained 12-25 μM γ-GluTyr. If these mice are assumed to have a total plasma volume of 4 ml, then only about 4% of the injected γ-GluTyr remained in the plasma at 60 min post-injection.

[11] = Stability of γ-GluTyr in a TPN amino acid solution; type: physicochemical; settings: equal volumes 1.8 mM γ-GluTyr and Aminosyn-PF 10%, pH 5.5, ultrafiltered, room temperature, nine-month period, HPLC
Method: B. In a TPN amino acid solution: Equal volumes of 1.8 mM γ-GluTyr and Aminosyn-PF 10% (Abbott Laboratories) were mixed and the pH was adjusted to 5.5. The mixture thus contained similar concentrations of the peptide and of several amino acids, including phenylalanine and histidine. A sample was taken for analysis, and the remainder of the solution was sterilized by ultrafiltration and stored at room temperature (typical storage conditions for TPN amino acid solutions). Samples for analysis were also taken at intervals over a nine-month period. All samples were analyzed by HPLC as described above.

[12] = rats, after 24 h, cited from earlier work
[13] = cited from earlier work; remark: listed apart in the source
[14] = mice, 20 μL 140 mM γ-GluTyr, 10 min postinjection

With `NCC(=O)N[C@@H](CCC(N)=O)C(=O)O` [GlyGln, glycylglutamine] (H-Gly-Gln-OH) as the molecule, how does the “stability in aqueous solution” value [1] read?
Its value is “unstable during prolonged storage in aqueous solution”.

Which “plasma ratio of cysteine to methionine (Cys/Met)” value ([2]; infants on TPN supplemented with L-cysteine-HCL) does the source give for `Cl.N[C@@H](CS)C(=O)O` [Cysteine-HCl, Cysteine-hydrochloride] here?
The value was 0.6.

What about the “adverse effect in TPN” value ([2]; some treated low-birth-weight infants) of the same molecule?
The value was “implicated in the production of acidosis”.

Which results are given for `NC(=O)CC[C@H](NC(=O)CC[C@H](N)C(=O)O)C(=O)O` [γ-GluGln, gamma-L-glutamyl-L-glutamine]?
stability of γ-GluGln under typical storage conditions [3]: remained stable; Glutamine Concentration (plasma), individual mice ([4]; 10 min): 675 µM and 762 µM and 614 µM and 693 µM and 681 µM and 770 µM; Glutamine Concentration (plasma), Mean + Standard Error ([4]; 10 min): 699 ± 24 µM; Glutamine Concentration (plasma), individual mice ([4]; 60 min): 565 µM and 586 µM and 457 µM and 198 µM and 555 µM and 629 µM; Glutamine Concentration (plasma), Mean + Standard Error ([4]; 60 min): 498 ± 64 µM; mice with γ-GluGln detected in the plasma ([4]; 29 μmoles γ-GluGln via external jugular vein, 10 min): three of six; appearance of γ-GluGln in the urine ([4]; mice not pretreated with acivicin): did not appear in the urine

Which urinary losses [5] does the source give for `CC(=O)N[C@@H](CSSC[C@H](NC(C)=O)C(=O)O)C(=O)O` [N,N'-bis-acetylcystine] here?
Its urinary losses is “large urinary losses”.

With `NCC(=O)N[C@@H](Cc1ccc(O)cc1)C(=O)O` [GlyTyr, L-glycyl-L-tyrosine] (H-Gly-Tyr-OH) as the molecule, how does the “rise of plasma tyrosine levels compared with AlaTyr” value [6] read?
Its value is “did not increase as rapidly”.

What about the “stability in aqueous solution” value [1] of the same molecule?
The value was “unstable during storage in aqueous solution”.

Which “stability in aqueous solution” value [1] does the source give for `C[C@H](N)C(=O)N[C@@H](CCC(N)=O)C(=O)O` [AlaGln, alanylglutamine] (H-Ala-Gln-OH) here?
The value was “unstable during prolonged storage in aqueous solution”.

Which transport into cells (cells) does the source give for `NC(CCC(=O)NC(CSSCC(N)C(=O)O)C(=O)O)C(=O)O` [γ-Glu(Cys)2, γ-L-glutamyl-L-cystine] here?
The transport into cells was “are transported”.

For `CC(=O)N[C@@H](CS)C(=O)O` [NAcCys, N-acetylcysteine], which “NAcCys levels (plasma)” value ([7]; four hours after administration (from 2)) is on record?
The value was 488 µmol/L.

And the “plasma levels of cysteine” value ([7]; four hours after administration of 5 g cysteine in a 200 mg/ml solution as NAcCys (basal 207))?
Its value is 134 µM.

What about the “administered NAcCys excreted in the urine” value ([7]; within 4 h) of the same molecule?
The value was 11%.

What does the source list for `N[C@@H](CCC(=O)N[C@@H](Cc1ccc(O)cc1)C(=O)O)C(=O)O` [γ-GluTyr, gamma-L-glutamyl-L-tyrosine]?
Tyr (plasma) (γ-GTase; acivicin + (2 mg/30 g mouse i.p. 90 min before)): 96 ± 1 µM; Phe (plasma) (γ-GTase; acivicin +): 96 ± 6 µM; γ-GluTyr (plasma) (γ-GTase; acivicin +): 247 ± 17 µM; γ-GluTyr excreted (γ-GTase; acivicin +): 16-48 % of total; Tyr (plasma) (γ-GTase; acivicin - (saline)): 126 ± 14 µM; Phe (plasma) (γ-GTase; acivicin -): 89 ± 8 µM; γ-GluTyr (plasma) (γ-GTase; acivicin -): 112 ± 15 µM; γ-GluTyr excreted (γ-GTase; acivicin -): 0.05-0.19 % of total; clearance of γ-GluTyr from plasma ([8]; mice 30-40 g, 20 μl of 140 mM (2.8 μmol) external jugular vein, 10 min to 60 min post-injection): 2.2 to 2.6 µM/min; Plasma Phe [8, 14]: 89 ± 8 µM; Plasma Tyr [8, 14]: 126 ± 14 µM; increase of plasma concentration of tyrosine ([8]; mice, 40 μl of 140 mM γ-GluTyr, between 5 and 10 min post-injection): 32%; fall of plasma concentration of tyrosine ([8]; mice, 40 μl of 140 mM γ-GluTyr, between 10 and 60 min post-injection): 32%; clearance rate of γ-GluTyr from plasma ([8]; mice, 40 μl of 140 mM, external jugular vein): 6.8 µM/min; release of tyrosine from γ-GluTyr by the enzyme [9]: released tyrosine; peptide hydrolyzed and available as free tyrosine and glutamic acid ([10]; 60 min post-injection): at least 96%; injected γ-GluTyr remaining in the plasma ([10]; 60 min post-injection, assumed total plasma volume of 4 ml): about 4%; plasma γ-GluTyr ([10]; anesthetized mice, 2.8 μmol i.v., 60 min): 12 to 25 µM; injected γ-GluTyr excreted in the urine ([10]; anesthetized mice, 2.8 μmol i.v., at the end of 60 min): ≤ 0.13%; partitioning into red blood cells ([10]; previous studies): not partitioned into red blood cells; levels of γ-GluTyr and tyrosine during storage [11]: unchanged

Which plasma tyrosine levels ([12]; 0.5 mmol/kg/day) does the source give for `C[C@H](N)C(=O)N[C@@H](Cc1ccc(O)cc1)C(=O)O` [AlaTyr, L-alanyl-L-tyrosine] (H-Ala-Tyr-OH) here?
Its plasma tyrosine levels is “unchanged”.

What about the plasma tyrosine levels ([12]; 2 mmol/kg/day) of the same molecule?
The plasma tyrosine levels was “increased two-fold”.

And the “stability in aqueous solution” value [1]?
Its value is “unstable in aqueous solution”.

With `N[C@@H](CCC(=O)N[C@@H](CS)C(=O)NCC(=O)O)C(=O)O` [GSH, gamma-glutamyl-cysteinylglycine, reference compound] as the molecule, how does the transport into cells (cells) read?
Its transport into cells is “does not appear to be transported into cells”.

With `N[C@@H](CSSC[C@H](N)C(=O)O)C(=O)O` [Cystine] as the molecule, how does the solubility in water [13] read?
Its solubility in water is 0.01 mg/mL (≈ 41.6 µM).

Which transport into cells (cells) does the source give for `N[C@@H](CCC(=O)N[C@@H](CSSC[C@H](NC(=O)CC[C@H](N)C(=O)O)C(=O)O)C(=O)O)C(=O)O` [(γ-GluCys)2, N,N'-bis(γ-glutamyl)cystine] here?
Its transport into cells is “are transported”.
